22 compounds from patent US8053436B1, “9-(piperazinylalkyl) carbazoles as bax-modulators” (Merck Serono SA, priority 1999, dated 2011) can be followed below.

The structures appear in SMILES notation. Structures can show the parent of a compound that is named as a salt.

Series [1] relates to Sympathetic neurons from superior cervical ganglia (SCG) of newborn rats. The series is described as follows: Sympathetic neuron culture and survival assay (neuronal survival). Format: cell-based. Particulars: Compounds were tested at 10 μM; rat SCG neurons, NGF deprivation (anti NGF antibody), MTT 24 hours after cell death induction. The text has this:
(§1) The above set out 2 in vitro assays c) and d) involving the determination of mitochondrial cytochrome c release are based on immunochemical methods using the Western blot analysis. Alternatively, said quantitative cytochrome c determinations could be performed by using spectrophotometric means: • I. by recording the difference between reduced and oxidised cytochrome c by dual wavelength double beam spectrophotometry; • by measuring the rather intensive γ or Soret peak in the spectrum of cytochrome c (ε=100 mM^−1 cm^−1) is used for rapid and quantitative determination of the release of cytochrome c from isolated mitochondria.
Cell death is induced at day 4 after plating by exposing the culture to medium containing 10 µg/ml of anti NGF antibody (Boehringer Mannheim Corp., Indianapolis, Ind.) and no NGF or arabinosine, in the presence or absence of piperazine derivatives of carbazole inhibitors according to formula I. 24 hours after cell death induction, determination of cell viability is performed by incubation of the culture for 1 hour, at 37° C. in 0.5 mg/ml of 3-(4,5-dimethyl-thiazol-2-yl)2,5diphenyl tetrazolium bromide (MTT). After incubation in MTT, cells are re-suspended in DMSO, transferred to a 96 MTT plate and cell viability is evaluated by measuring optical density at 590 nm.

The target in series [2] is T1, Bid-induced Bax activation (mitochondria isolated from HeLa cells) (Homo sapiens, UniProt Q07812).
T1 construct: endogenous in cells; host or cells: mitochondria isolated from HeLa cells
The series is described as follows: Mitochondria cytochrome c release triggered by Bid-induced Bax activation. Format: biochemical. The note with it: Compounds were tested at 10 μM, 10 nM recombinant Bid. On the procedure:
d) Effect of Compounds according to formula I onto the Release of Cytochrome c Triggered by Bid-Induced Bax Activation (Mitochondria Cytochrome c Release Triggered by Bid-Induced Bax Activation)
Mitochondria isolated from HeLa cells are incubated for 15 min at 30° C. in […] of KCl buffer in the presence or absence of 10 nM recombinant Bid. The various compounds (10 μM) are pre-incubated for 5 min prior to addition of Bid. Following incubation, mitochondria were centrifuged for 5 min at 13000 g at 4° C. and the supernatant is collected for cytochrome c analysis. Cytochrome c is detected by Western blotting. The cytochrome c bands are scanned and quantified using a Bio-Rad (GS-700 Imaging Densitometer).
as §1

Series [3] has as its target T2, recombinant Bax (Human Bax-α), mitochondria from mouse liver (Homo sapiens, UniProt Q07812).
T2 construct: Human Bax-α lacking 20 amino acids at the COOH-terminus; GST (cleaved yes); His-tag (alternative construct); made in house; host or cells: Escherichia coli
In words: In vitro assay for cytochrome c release (mitochondria cytochrome c release triggered by Bax activation). Format: biochemical. The note with it: Compounds were tested at 5 μM, 200 nM recombinant Bax.
Text: The cytochrome c bands are scanned and quantified using a Bio-Rad (GS-700 Imaging Densitometer).
as §1

T1 sequence (Q07812 whole entry): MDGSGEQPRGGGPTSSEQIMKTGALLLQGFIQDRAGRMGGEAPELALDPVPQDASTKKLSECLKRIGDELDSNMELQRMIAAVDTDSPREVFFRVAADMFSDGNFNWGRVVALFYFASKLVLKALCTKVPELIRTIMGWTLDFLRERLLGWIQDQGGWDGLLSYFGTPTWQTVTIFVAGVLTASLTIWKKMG
T2 sequence (Q07812 1-172 limits assumed): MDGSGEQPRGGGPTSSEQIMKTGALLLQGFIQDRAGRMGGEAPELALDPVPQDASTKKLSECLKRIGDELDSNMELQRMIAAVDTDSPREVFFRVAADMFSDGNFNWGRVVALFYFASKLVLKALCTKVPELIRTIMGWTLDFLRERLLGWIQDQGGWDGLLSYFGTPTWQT

One may read the melting point as the temperature, or range, at which the solid turns liquid. Turning to `OC(CN1CCN(Cc2ccc(Cl)c(Cl)c2)CC1)Cn1c2ccc(Br)cc2c2cc(Br)ccc21` (racemic) (as salt: hydrochloride) [Example 72, (±)-1-(3,6-Dibromo-carbazol-9-yl)-3-[4-(3,4-dichlorobenzyl)piperazin-1-yl]propan-2-ol], the melting point was 287 °C (dec.). Same read-out and setting: the same measure for `O=S(=O)(Cc1ccccc1)N1CCN(CC(O)Cn2c3ccc(Br)cc3c3cc(Br)ccc32)CC1` (racemic) (as salt: hydrochloride) [Example 71, (±)-1-[4-(Benzylsulfonyl)piperazin-1-yl]-3-(3,6-dibromo-carbazol-9yl)propan-2-ol]: 253 °C (dec.).

By inhibition is commonly meant the drop in the measured response relative to a control, in per cent. As to `FC(F)(CN1CCNCC1)Cn1c2ccc(Br)cc2c2cc(Br)ccc21` (racemic) [Example 80, (±)-3,6-Dibromo-9-(2,2-difluoro-3-piperazin-1-ylpropyl)-carbazole], the “Neuronal Survival (%)” value in series [1] amounted to 20%. Moreover, the inhibition at 10 µM in series [2] came out at 73%. For `OC(CN1CCN(CCCc2ccccc2)CC1)Cn1c2ccccc2c2ccccc21` (racemic) (as salt: HCl) [Example 31, (±)-1-Carbazol-9-yl-3-[4-(3-phenyl-propyl)-piperazin-1-yl]-propan-2-ol], the melting point came to 265 °C. In the case of `OC(CN1CCN(Cc2ccsc2)CC1)Cn1c2ccc(Br)cc2c2cc(Br)ccc21` (racemic) [Example 60, (±)-1-(3,6-Dibromocarbazol-9-yl)-3-[4-(thien-3-ylmethyl)piperazin-1-yl]propan-2-ol], the “Neuronal Survival (%)” value in series [1] is listed as 40%. Besides, in series [2], the inhibition at 10 µM came out at 60%.

With `O=C(CN1CCN(CC2CCCCC2)CC1)Cn1c2ccccc2c2cc(-c3ccccc3)ccc21` (as salt: hydrochloride) [Example 111, (±)-1-[4-(Cyclohexylmethyl)piperazin-1-yl]-3-(3-phenylcarbazol-9-yl)acetone], the melting point was 231 °C (dec.). Same read-out and setting: the same measure for `N#Cc1ccc2c(c1)c1cc(C#N)ccc1n2CC(O)CN1CCNCC1` (racemic) (as salt: HCl) [Example 25, (±)-9-(2-Hydroxy-3-piperazin-1-yl-propyl)-carbazole-3,6-dicarbonitrile]: 295 °C (dec.). Still for that read-out and setting: the same measure for `OC(CN1CCN(Cc2ccc(F)cc2)CC1)Cn1c2ccccc2c2cc(-c3ccccc3)ccc21` (racemic) (as salt: HCl) [Example 24, (±)-1-[4-(4-Fluoro-benzyl)-piperazin-1-yl]-3-(3-phenyl-carbazol-9-yl)-propan-2-ol]: 188 °C; for `O=C(c1ccccc1)N1CCN(CC(O)Cn2c3ccccc3c3ccccc32)CC1` (racemic) (as salt: HCl) [Example 36, (±)-1-[4-(3-Carbazol-9-yl-2-hydroxy-propyl)-piperazin-1-yl]-1-phenyl-methanone]: 153 °C. On the same count and under the same terms, the same measure for `O=C(CN1CCN(CC2CCCCC2)CC1)Cn1c2ccc(Br)cc2c2cc(Br)ccc21` (as salt: hydrochloride) [Example 109, (±)-1-[4-(cyclohexylmethyl)piperazin-1-yl]-3-(3,6-dibromocarbazol-9-yl)acetone]: 261 °C (dec.).

As to `OC(CN1CCNCC1)Cn1c2ccccc2c2cc(-c3ccccc3)ccc21` (racemic) [Example 27, (±)-1-(3-Phenylcarbazol-9-yl)-3-piperazin-1-yl-propan-2-ol], the “Neuronal Survival (%)” value in series [1] is given as 40%. Besides, the inhibition at 10 µM in series [2] is 88%. Moreover, the inhibition at 5 µM in series [3] came to 40%. With `OC(CN1CCN(CCN2CCOCC2)CC1)Cn1c2ccc(Cl)cc2c2cc(Cl)ccc21` (racemic) [Example 110, (±)-1-(3,6-Dichlorocarbazol-9-yl)-3-[4-(2-morpholin-4-ethyl)piperazin-1-yl]propan-2-ol], the “Neuronal Survival (%)” value in series [1] is recorded as 30%. For the same compound, the “Mitochondria Cytochrome c Release Triggered by Bid-Induced Bax Activation (% Inhibition)” value in series [2] is reported as 87%.

In the case of `OC(CN1CCN(Cc2ccc(F)cc2)CC1)Cn1c2ccccc2c2ccccc21` (racemic) (as salt: HCl) [Example 22, (±)-1-Carbazol-9-yl-3-[4-(4-fluoro-benzyl)-piperazin-1-yl]-propan-2-ol], the melting point is 251 °C (dec.). Still for that read-out and setting: the same measure for `OC(CN1CCN(Cc2ccnc3ccccc23)CC1)Cn1c2ccccc2c2cc(Br)ccc21` (racemic) (as salt: hydrochloride) [Example 106, (±)-1-(3-Bromocarbazol-9-yl)-3-[4-(quinolin-4-ylmethyl)piperazin-1-yl]propan-2-ol]: 192 °C (dec.); for `OC(CN1CCN(CC2CCCCC2)CC1)Cn1c2ccc(Cl)cc2c2cc(Cl)ccc21` (racemic) (as salt: hydrochloride) [Example 76, (±)-1-[4-(Cyclohexylmethyl)piperazin-1-yl]-3-(3,6-dichloro-carbazol-9-yl)propan-2-ol]: 302 °C (dec.); for `OC(CN1CCN(Cc2ccccc2)CC1)Cn1c2ccc(Br)cc2c2cc(Br)ccc21` (racemic) [Example 6, (±)-1-(4-Benzyl-piperazin-1-yl)-3-(3,6-dibromo-carbazol-9-yl)-propan-2-ol]: 70 to 75 °C.

As for `OC(CN1CCN(CC2CCCCC2)CC1)Cn1c2ccccc2c2cc(-c3ccccc3)ccc21` (racemic) (as salt: hydrochloride) [Example 66, (±)-1-(4-Cyclohexylmethylpiperazin-1-yl)-3-(3-phenylcarbazol-9-yl)-propan-2-ol], the melting point is 265 to 270 °C (dec.). For `COc1ccc(CN2CCN(CC(O)Cn3c4ccc(Br)cc4c4cc(Br)ccc43)CC2)cc1` (racemic) [Example 62, (±)-1-(3,6-Dibromocarbazol-9-yl)-3-[4-(4-methoxybenzyl)piperazin-1-yl]propan-2-ol], the “Neuronal Survival (%)” value in series [1] came to 30%. In addition, the inhibition at 10 µM in series [2] came to 99%. With `Cc1ccc2c3ccccc3n(CC(O)CN3CCN(Cc4ccccc4)CC3)c2c1` (racemic) (as salt: hydrochloride) [Example 1, (±)-1-(4-Benzyl-piperazin-1-yl)-3-(2-methyl-carbazol-9-yl)-propan-2-ol], the melting point is 239 °C (dec.).

As to `OC(CN1CCN(CCN2CCOCC2)CC1)Cn1c2ccc(Br)cc2c2cc(Br)ccc21` (racemic) [Example 73, (±)-1-(3,6-Dibromo-carbazol-9-yl)-3-[4-(2-morpholin-4-ethyl)piperazin-1-yl]propan-2-ol], the “Neuronal Survival (%)” value in series [1] is 30%. Besides, the “Mitochondria Cytochrome c Release Triggered by Bid-Induced Bax Activation (% Inhibition)” value in series [2] was 74%.

With `OC(CN1CCN(Cc2ccc(F)cc2)CC1)Cn1c2ccc(Br)cc2c2cc(Br)ccc21` (racemic) [Example 23, (±)-1-(3,6-Dibromo-carbazol-9-yl)-3-[4-(4-fluoro-benzyl)-piperazin-1-yl]-propan-2-ol], in series [1], the “Neuronal Survival (%)” value is reported as 45%. Besides, the inhibition at 10 µM in series [2] was found to be 68%. Further, the inhibition at 5 µM in series [3] is 51%. Consider `OC(CN1CCN(CC2CCCCC2)CC1)Cn1c2ccc(Br)cc2c2cc(Br)ccc21` (racemic) [Example 45, (±)−1-4-Cyclohexylmethylpiperazin-1-yl)-3-(3,6-dibromo-carbazol-9-yl)-propan-2-ol], for which the “Neuronal Survival (%)” value in series [1] is 60%. Besides, the “Mitochondria Cytochrome c Release Triggered by Bid-Induced Bax Activation (% Inhibition)” value in series [2] is reported as 37%.
